From publication PMC5431086, “The Rational Design of Therapeutic Peptides for Aminopeptidase N using a Substrate-Based Approach” (Scientific Reports, 2017)
“And” between values parts separate entries of the source, which are not always exact repeats. Identical values can stand only once. Starred links: 1 amine or outer side, 2 acyl side, 3 side chain; linkers in the order of their positions; H or OH if unused. Positions of bridges follow the written chain, without caps; N, C: chain ends. Residues, ends and D or L forms follow the SMILES beside them. No end group written: not given here. *: point of attachment. Suc = O=C(CCC(=O)[*:2])[*:1]; Cbz = O=C(OCc1ccccc1)*; For = O=C*

Biological target: T1, hAPN (aminopeptidase N) (Homo sapiens, UniProt P15144)
T1 construct: human APN ecdomain (residues 66–967) were expressed and purified as previously described; honeybee-melittin signal peptide (N); His6 (C); made in house; host or cells: insect cells
Test: Inhibition of cleavage of fluorogenic alanine substrate (H-Ala-AMC) by APN
Type: biochemical
Conditions: 0.1 μM APN, 100 μM H-Ala-AMC, pH 7.2, 37 °C, triplicate
Description: Five-residue long peptides containing P1–P4′ residues from primary cleavages in the library were synthesized and tested for their ability to prevent the cleavage of a fluorogenic alanine substrate by hAPN.
The peptides used in this study were custom synthesized by AAPPTEC of Louisville, KY using traditional Fmoc solid-phase peptide synthesis. All of the peptides were purified and characterized by AAPPTEC. […] Inhibition assays were performed in triplicate in a 100 mM Tris pH 7.2, Brij 35 0.0002% w/v assay buffer at 37 °C with 0.1 μM APN and 100 μM H-Ala-AMC (fluorophore). Values were recorded by Infinite pro plate reader every 2 minutes for 30 minutes with laser parameters set for excitation at 355 nm and emission at 460 nm.

T1 sequence (P15144 66-967): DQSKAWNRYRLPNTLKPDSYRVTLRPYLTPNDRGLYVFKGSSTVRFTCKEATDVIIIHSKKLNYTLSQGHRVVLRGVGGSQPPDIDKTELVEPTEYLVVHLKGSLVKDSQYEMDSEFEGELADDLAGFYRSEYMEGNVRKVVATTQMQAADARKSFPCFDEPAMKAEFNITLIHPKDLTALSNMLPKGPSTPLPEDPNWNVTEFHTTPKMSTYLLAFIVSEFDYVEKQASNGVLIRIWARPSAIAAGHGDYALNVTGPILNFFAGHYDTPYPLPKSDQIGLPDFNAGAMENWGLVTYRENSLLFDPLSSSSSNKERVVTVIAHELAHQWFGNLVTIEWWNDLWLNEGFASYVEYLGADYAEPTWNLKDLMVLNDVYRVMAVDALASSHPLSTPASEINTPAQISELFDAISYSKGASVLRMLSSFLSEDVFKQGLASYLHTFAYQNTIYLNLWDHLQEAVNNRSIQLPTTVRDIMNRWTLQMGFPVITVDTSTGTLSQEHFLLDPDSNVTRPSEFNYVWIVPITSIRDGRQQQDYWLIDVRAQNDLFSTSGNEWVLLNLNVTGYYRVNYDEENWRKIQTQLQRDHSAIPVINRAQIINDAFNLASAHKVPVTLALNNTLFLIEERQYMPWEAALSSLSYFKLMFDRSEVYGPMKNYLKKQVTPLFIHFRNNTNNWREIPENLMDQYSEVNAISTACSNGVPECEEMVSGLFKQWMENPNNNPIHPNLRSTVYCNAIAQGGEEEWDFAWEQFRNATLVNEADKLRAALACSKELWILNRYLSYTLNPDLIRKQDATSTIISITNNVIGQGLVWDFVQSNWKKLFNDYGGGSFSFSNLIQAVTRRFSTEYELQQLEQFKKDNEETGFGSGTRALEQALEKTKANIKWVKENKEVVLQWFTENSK

Compound	IC50
LDSTF [LDSTF]	> 500 µM
N[C@@H](Cc1c[nH]cn1)C(=O)N[C@@H](CO)C(=O)N1CCC[C@H]1C(=O)N[C@@H](Cc1c[nH]c2ccccc12)C(=O)O [HSPW] (H-HSPW-OH; N-terminus and C-terminus assumed)	43 µM and 43.3 µM
C[C@@H](O)[C@H](NC(=O)[C@H](CO)NC(=O)[C@@H](N)CC(=O)O)C(=O)N[C@@H](Cc1ccccc1)C(=O)O [DSTF] (H-DSTF-OH)	> 500 µM
ADARK [ADARK]	> 500 µM

Same assay, conditions: APN; Ki from IC50 by Cheng-Prusoff equation; 0.1 μM APN, 100 μM H-Ala-AMC

Compound	Ki [µM]
C[C@@H]1NC(=O)[C@@H](N)CSSC[C@@H](C(=O)O)NC(=O)[C@H](Cc2c[nH]c3ccccc23)NC(=O)[C@@H]2CCCN2C(=O)[C@H](CO)NC(=O)[C@H](Cc2c[nH]cn2)NC1=O [cyc-AHSPW, Cys-AHSPW-Cys] (H-CAHSPWC-OH; disulfide 1-7)	> 500
CC(C)C[C@H](NC(=O)CCC(=O)O)C(=O)N[C@@H](Cc1c[nH]cn1)C(=O)N[C@@H](CO)C(=O)N1CCC[C@H]1C(=O)N[C@@H](Cc1c[nH]c2ccccc12)C(=O)O [Suc-LHSPW] (Suc-LHSPW-OH)	> 500
CC(C)C[C@@H]1NC(=O)[C@@H](N)CSSC[C@@H](C(=O)O)NC(=O)[C@H](Cc2ccccc2)NC(=O)[C@H]([C@@H](C)O)NC(=O)[C@H](CO)NC(=O)[C@H](CC(=O)O)NC1=O [cyc-LDSTF] (H-CLDSTFC-OH; disulfide 1-7)	> 500
C[C@@H]1NC(=O)[C@H](CC(=O)O)NC(=O)[C@H](C)NC(=O)[C@@H](N)CSSC[C@@H](C(=O)O)NC(=O)[C@H](CCCCN)NC(=O)[C@H](CCCNC(=N)N)NC1=O [cyc-ADARK] (H-CADARKC-OH; disulfide 1-7)	> 500
CC(C)C[C@H](NC(=O)OCc1ccccc1)C(=O)N[C@@H](Cc1c[nH]cn1)C(=O)N[C@@H](CO)C(=O)N1CCC[C@H]1C(=O)N[C@@H](Cc1c[nH]c2ccccc12)C(=O)O [Cbz-LHSPW] (Cbz-LHSPW-OH)	> 500
Ac-LHSPW [Ac-LHSPW]	> 500
CC(C)C[C@@H]1NC(=O)[C@@H](N)CSSC[C@@H](C(=O)O)NC(=O)[C@@H]2CCCN2C(=O)[C@H](CO)NC(=O)[C@H](Cc2c[nH]cn2)NC1=O [cyc-LHSP] (H-CLHSPC-OH; disulfide 1-6)	121 ± 21.4
O=C(N[C@@H](Cc1c[nH]cn1)C(=O)N[C@@H](CO)C(=O)N1CCC[C@H]1C(=O)N[C@@H](Cc1c[nH]c2ccccc12)C(=O)O)OCc1ccccc1 [Cbz-HSPW] (Cbz-HSPW-OH; C-terminus assumed)	> 500
CC(C)C[C@@H]1NC(=O)[C@@H](N)CSSC[C@@H](C(=O)O)NC(=O)[C@H](CO)NC(=O)[C@H](Cc2c[nH]cn2)NC1=O [cyc-LHS] (H-CLHSC-OH; disulfide 1-5)	> 500
O=CN[C@@H](Cc1c[nH]cn1)C(=O)N[C@@H](CO)C(=O)N1CCC[C@H]1C(=O)N[C@@H](Cc1c[nH]c2ccccc12)C(=O)O [For-HSPW] (For-HSPW-OH; C-terminus assumed)	> 500
CC(=O)N[C@@H](Cc1c[nH]cn1)C(=O)N[C@@H](CO)C(=O)N1CCC[C@H]1C(=O)N[C@@H](Cc1c[nH]c2ccccc12)C(=O)O [Ac-HSPW] (Ac-HSPW-OH; C-terminus assumed)	> 500
CC(C)C[C@H](NC=O)C(=O)N[C@@H](Cc1c[nH]cn1)C(=O)N[C@@H](CO)C(=O)N1CCC[C@H]1C(=O)N[C@@H](Cc1c[nH]c2ccccc12)C(=O)O [For-LHSPW] (For-LHSPW-OH)	> 500
O=C(O)CCC(=O)N[C@@H](Cc1c[nH]cn1)C(=O)N[C@@H](CO)C(=O)N1CCC[C@H]1C(=O)N[C@@H](Cc1c[nH]c2ccccc12)C(=O)O [Suc-HSPW] (Suc-HSPW-OH; C-terminus assumed)	> 500
N[C@H]1CSSC[C@@H](C(=O)O)NC(=O)[C@H](Cc2c[nH]c3ccccc23)NC(=O)[C@@H]2CCCN2C(=O)[C@H](CO)NC(=O)[C@H](Cc2c[nH]cn2)NC(=O)[C@@H]2CCCN2C1=O [cyc-PHSPW, Cys-PHSPW-Cys] (H-CPHSPWC-OH; disulfide 1-7)	> 500
